Assay results reported in patent US11312690B2, “Compounds, compositions, methods for treating diseases, and methods for preparing compounds” (UNIVERSITY OF LOUISVILLE RESEARCH FOUNDATION, INC., priority 2015, dated 2022).

Tests used:
[1] = biological target: T1, interaction of K-Ras with RalGDS (Homo sapiens, UniProt Q12967); test: Ras/RalGEF binding, immunoprecipitation and immunoblot from co-transfected HEK-293 cells; details: 10 μM, HA K-Ras 12v and GFP-RalGDS, IP/IB, FIG. 3A
T1 construct: expressed in transfected cells; host or cells: HEK-293
T1 sequence (Q12967 1-914): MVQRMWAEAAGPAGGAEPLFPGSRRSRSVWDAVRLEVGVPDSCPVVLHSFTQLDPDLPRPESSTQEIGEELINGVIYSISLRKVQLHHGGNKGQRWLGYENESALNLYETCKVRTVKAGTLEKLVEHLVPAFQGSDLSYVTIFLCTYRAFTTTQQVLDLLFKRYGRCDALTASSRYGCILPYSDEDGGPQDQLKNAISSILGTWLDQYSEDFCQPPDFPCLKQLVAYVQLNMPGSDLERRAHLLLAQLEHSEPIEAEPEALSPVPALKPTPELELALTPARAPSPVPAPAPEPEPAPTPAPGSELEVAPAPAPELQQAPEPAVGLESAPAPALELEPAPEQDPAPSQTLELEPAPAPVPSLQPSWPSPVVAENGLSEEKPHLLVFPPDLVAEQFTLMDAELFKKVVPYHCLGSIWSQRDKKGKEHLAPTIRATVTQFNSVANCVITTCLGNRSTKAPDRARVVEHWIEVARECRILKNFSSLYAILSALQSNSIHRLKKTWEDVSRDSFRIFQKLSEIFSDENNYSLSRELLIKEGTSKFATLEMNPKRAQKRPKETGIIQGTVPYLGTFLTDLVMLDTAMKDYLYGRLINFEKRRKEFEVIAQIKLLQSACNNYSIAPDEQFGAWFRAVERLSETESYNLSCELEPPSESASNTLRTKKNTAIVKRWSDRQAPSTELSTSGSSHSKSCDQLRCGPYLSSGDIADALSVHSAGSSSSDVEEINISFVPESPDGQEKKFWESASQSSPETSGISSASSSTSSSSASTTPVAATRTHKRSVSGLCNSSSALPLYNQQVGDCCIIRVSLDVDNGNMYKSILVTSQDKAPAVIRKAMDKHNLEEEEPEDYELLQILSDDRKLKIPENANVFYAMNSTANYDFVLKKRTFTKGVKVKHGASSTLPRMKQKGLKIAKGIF

[2] = tested on: Panc-1; test: Soft agar colony formation; type: cell-based, human
Protocol: FIG. 1. Effects of some compounds of Formula (I) on RalGEF inhibitor on soft agar growth and normal growth in 2D of pancreatic carcinoma cell lines. In FIGS. 1A and 1B, Panc-1 (ATCC® CRL-1469™) and MiaPaCa-2 (ATCC® CRL-1420™) mutant Ras containing pancreatic tumor cell lines were plated in soft agar in the presence of 10 μM or 0.9 μM of compound I-1 and scored for the formation of colonies. In FIGS. 1C and 1D, compound I-1 was then tested for the ability to inhibit cell growth on the same cell lines under normal 2D growth conditions on plastic. “0” is the carrier. Cells were seeded at the same density and scored after two weeks in culture.
Human pancreatic tumor cell lines MiaPaca-2 and Panc-1 contain activated K-Ras and were used in the initial screen to identify compound I-1. Soft agar colony formation remains an established in vitro assay to predict tumorigenicity and was used to predict tumorigenicity for compound I-1.

[3] = tested on: RalA; test: Activated RalA pull down in lung tissue of Mia-PaCa2 xenograft mice; type: in vivo, NRG mice; details: treated vs carrier treated xenograft mouse, FIG. 5
Protocol: Some compounds of Formula (I) suppress Ral GTP levels in vivo—FIG. 5 NRG mice were provided with s.c. xenografts of Mia-PaCa2 cells. Tissue from the lungs of a carrier treated xenograft mouse and a compound I-1 treated mouse were assayed for the levels of activated RalA using a pull down assay kit using the manufacter's protocol (Cat. #BK040 from Cytoskeleton, Inc., Denver Colo.).

[4] = Preliminary in vivo toxicity; set-up: species or system mice; details: 25 mg/kg, ip injection over 2 weeks, data not shown
[5] = tested on: Mia-PaCa-2 cells; test: Mia-PaCa-2 sub-cutaneous xenograft, primary tumor growth and lung metastasis; type: in vivo, NRG mice; details: 10 mg/kg ip every other day for 2 weeks, scored one week later
Protocol: Some compounds of Formula (I) suppress pancreatic cancer cell metastasis—FIG. 6. NRG mice were sub-cutaneously inoculated with PBS (“no tumor cells”) or 5×10^6 Ras driven Mia-PaCa-2 cells. Mice were allowed to recover for 1 week and then injected (ip) with PBS/DMSO carrier or 10 mg/kg of compound I-1 every other day for 2 weeks. One week later, mice were scored for primary tumor growth and lung metastasis.

[6] = tested on: Caov-3 [Caov3] (ovarian cancer); test: Tumorigenic phenotype in vitro, Ras driven tumor cell line; type: cell-based; details: data not shown
Excerpt: (§1) (ATCC® HTB-75™)(ovarian cancer); D283 Med (ATCC® HTB-185™) (Medulloblastoma); A549 (ATCC® CCL-185™) (lung cancer); and LNCaP clone FGC (ATCC® CRL1740™) (prostate cancer).

[7] = tested on: A549 (lung cancer); test: as above; type: cell-based; details: data not shown
Excerpt: as §1

[8] = tested on: D283 Med (Medulloblastoma); test: as above; type: cell-based; details: data not shown
Excerpt: as §1

[9] = tested on: LNCaP clone FGC (prostate cancer); test: as above; type: cell-based; details: data not shown
Excerpt: as §1

[10] = tested on: Ral; test: Endogenous Ral activation in cells with endogenous hyper-activated Ras (RalBP1 pull down kit); type: cell-based; details: 10 μM, untransfected cells, FIG. 4
Protocol: Specific Inhibition of endogenous Ras/RalGEF signaling. FIG. 4. Specific suppression of Ral activation by some compounds of Formula (I). Cells with endogenous hyper-activated Ras were assayed for endogenous Ral activation in the presence or absence of inhibitor (10 μM) using a Cell Biolabs (SanDiego Calif.) kit. Compound I-1 was dissolved in DMSO; DMSO serves as the carrier negative control. IP is immunoprecipitation. IB is immunoblot. Cell lysates were then assayed for the levels of MAPK pathway activation using a phosphoERK antibody. They were the same. Actin is a loading control.
RalGEFs drive Ral into the active, GTP bound form so it can bind its effector RalBP1. […] Commercially available kits available from several vendors use RalBP1 attached to beads as an affinity reagent specific to the active form of Ral. By measuring the level of activated Ral and comparing it to the total levels of Ral, it is possible to measure the state of endogenous Ral activation. We assayed untransfected cells containing endogenous hyper-activated Ras for the effects of compound I-1 treatment on endogenous levels of active Ral levels.

In the case of `COc1cccc(CNc2nc(CN(C)Cc3cccc(OC)c3)nc3sc(C)c(C)c23)c1` [Compound I-1], the “stable association of Ras and RalGDS” value [1] is reported as “inhibited the stable association of Ras and RalGDS”, the “ability of the cells to grow in soft agar” value ([2]; 10 μM, FIG. 1A) is reported as “almost completely blocked” and the “tumorigenic phenotype in vitro” value ([2]; FIG. 1A) is reported as “blocks the tumorigenic phenotype in vitro at low μM or sub μM levels”. The IC50 ([2]; Homo sapiens, PANC-1, soft agar, titration experiments, data not shown, read-out: IC50 (concentration that inhibits 50% of colony formation)) was under 1 µM, the “levels of active RalA in lung tissue” value [3] was “reduced levels of active RalA” and the “deleterious effect on mice (behavior, weight)” value [4] was “no obvious deleterious effect”. For the same molecule, the “effects on the primary tumor” value [5] was “not obvious”, the lung metastasis ([5]; FIG. 6) was “metastasis was inhibited” and the “tumorigenic phenotype in vitro” value [6] was “blocks the tumorigenic phenotype in vitro”. For the same molecule, the “tumorigenic phenotype in vitro” value [7] was “blocks the tumorigenic phenotype in vitro”, the “tumorigenic phenotype in vitro” value [8] was “blocks the tumorigenic phenotype in vitro” and the “tumorigenic phenotype in vitro” value [9] was “blocks the tumorigenic phenotype in vitro”. The “levels of endogenous active Ral (GTP bound)” value [10] was “suppressed the levels of endogenous active Ral”.
